# Results from US8258098B2, “Antitumoral treatments” (Pharma Mar, S.A., priority 2006, dated 2012).
# Tests used:
# A549 cells = assay: MTS cytotoxicity assay, 72 hours, single agents and combinations with Aplidine; type: cell-based; conditions: Homo sapiens, A549, 72 hours drug exposure, read-out: IC50 (Molar)
# Experimental: (§1) Day before plating cells all cultures were fed with fresh, complete growth media. On the harvest (plating) day cells were counted by Trypan Blue exclusion staining method (basic cell culture). Cells were harvested and seeded in 96 well microtiter plates at 10,000 cells per well in 190 μL of media and incubated for 24 hours to allow the cells to attach before drug addition. Cells were treated with the drugs and the cytotoxic effect was measured by the MTS Assay (Tetrazolium), which is a colorimetric method for determining the number of viable cells. After the 72 hours of incubation with drug, 25 μL of MTS+PMS solution was added to each microtiter well and incubated for 4 hours at 37° C. Plates were then removed from incubator and placed on plate shaker for 5 minutes (covered with aluminium foil for protection from light). Optical densities were read at 490 nm on spectrophotometer plate reader.
# (§2) The microtiter plates were incubated for 72 hrs, at 5% CO2 and 37° C. The cytotoxic effect was measured by MTS Assay. Optical densities read at 490 nm. Normalized data was plotted and interpreted as described. Data was analysed as: • 1. Prism (Graphpad) software program was used to normalized the data to control values (100%=cell growth in the absence of agent (drug); 0%=blank control). • 2. Data normalized were plotted as scatter plots.
# (§3) Conversely, antagonism was concluded when inhibition was lower than both maxima. […] Statistical significance was assessed by performing a student's t-test on the inhibition at each dose ratio versus the inhibition at the maximum for each drug.
# (§4) As a visual aid, response values were plotted on a scatter plot with dose ratios given on the x-axis and % response values on the y-axis. […] In cases where response values at the two endpoints were approximately equivalent, points lying above or below this predicted line of additivity could be interpreted as representing antagonistic or synergistic drug interaction, respectively.
# HL60 cells = assay: as above; type: cell-based; conditions: Homo sapiens, HL-60, HL60, 72 hours drug exposure, read-out: IC50 (Molar)
# Experimental: as §1, §2, §3, §4
# HT29 cells = assay: as above; type: cell-based; conditions: Homo sapiens, HT-29, HT29, 72 hours drug exposure, read-out: IC50 (Molar)
# Experimental: as §1, §2, §3, §4
# MOLT3 cells = assay: as above; type: cell-based; conditions: Homo sapiens, MOLT-3, MOLT3, 72 hours drug exposure, read-out: IC50 (Molar)
# Experimental: as §1, §2, §3, §4
# MX1 cells = assay: as above; type: cell-based; conditions: Homo sapiens, MX1, 72 hours drug exposure, read-out: IC50 (Molar)
# Experimental: as §1, §2, §3, §4
# PC3 cells = assay: as above; type: cell-based; conditions: Homo sapiens, PC-3, PC3, 72 hours drug exposure, read-out: IC50 (Molar)
# Experimental: as §1, §2, §3, §4
# [1] = tested on: LOX-IMVI melanoma tumor xenografts; assay: Net tumor volume in tumor xenografts; type: in vivo, female athymic mice; conditions: DTIC 30 mg/kg, Carboplatin 25 mg/kg, i.p.
# Source text: (§5) Athymic nude female mice were received from Harlan Sprague Dawley, Madison, Wis. at 4-5 weeks of age. Mice were acclimated to the laboratory for at least one week prior to implantation of tumor. Animals were housed in static cages with food and water allowed ad libitum. Experimental animals were implanted with either tumor fragments derived from transplantation established human tumors or with cells obtain directly from in vitro culture. Tumors were implanted subcutaneously on the right flank on Day 0.
# (§6) Tumor size measurements were recorded twice weekly beginning on day 4 or 5 using vernier calipers. The formula to calculate volume for a prolate ellipsoid was used to estimate tumor volume from 2-dimensional tumor measurements: tumor volume (mm^3)=(length×width^2)÷2. Assuming unit density, volume was converted to weight (i.e., 1 mm^3=1 mg). […] Treatments were initiated and administered on an individual body weight basis. A dose range finding study was performed on each tumor model to determine the appropriate dose level of each compound used in the combination studies.
# [2] = tested on: MRI-H187 melanoma tumor xenografts; assay: Net tumor volume in tumor xenografts; type: in vivo, female athymic mice; conditions: Aplidine 50 μg/kg, DTIC 40 mg/kg, Carboplatin 25 mg/kg, i.p.
# Source text: as §5, §6
# SKBR3 cells = assay: MTS cytotoxicity assay, 72 hours, single agents and combinations with Aplidine; type: cell-based; conditions: Homo sapiens, SK-BR-3, SKBR3, 72 hours drug exposure, read-out: IC50 (Molar)
# Experimental: as §1, §2, §3, §4
# [3] = tested on: CaKi-1 renal tumor xenografts; assay: Net tumor volume in tumor xenografts; type: in vivo, female athymic mice; conditions: Aplidine 50 μg/kg i.p., Avastin 5.0 mg/kg i.p., IL-2 2 μg/mouse i.p., INF-α 200,000 U/mouse s.c.
# Source text: as §5, §6
# [4] = tested on: MRI-H121 renal tumor xenografts; assay: Net tumor volume in tumor xenografts; type: in vivo, female athymic mice; conditions: Aplidine 25 μg/kg i.p., Avastin […] i.p., IL-2 1 μg/mouse i.p., INF-α 200,000 U/mouse s.c.
# Source text: as §5, §6
compound,measurement,setting,value
"O=c1[nH]cc(F)c(=O)[nH]1 [5-FU, 5-fluorouracil]",IC50,A549 cells,1400 µM
same,IC50,HL60 cells,1200 µM
same,IC50,HT29 cells,880 µM
same,IC50,MOLT3 cells,11 µM
same,IC50,MX1 cells,> 100 µM
same,IC50,PC3 cells,220 µM
"CN(C)/N=N/c1[nH]cnc1C(N)=O [DTIC, dacarbazine]",Net Tumor Volume ± S.E.M.,"[1]; DAY 8, Aplidine 50 μg/kg",208 ± 25 mg
same,Net Tumor Volume ± S.E.M.,"[1]; DAY 12, Aplidine 50 μg/kg",699 ± 57 mg
same,Net Tumor Volume ± S.E.M.,"[1]; DAY 14, Aplidine 50 μg/kg",950 ± 57 mg
same,Net Tumor Volume ± S.E.M.,"[1]; DAY 19, Aplidine 50 μg/kg",2695 ± 560 mg
same,Net Tumor Volume ± S.E.M.,"[2]; MRI-H187, DAY 20",148 ± 14 mg
same,Net Tumor Volume ± S.E.M.,"[2]; MRI-H187, DAY 24",264 ± 60 mg
same,Net Tumor Volume ± S.E.M.,"[2]; MRI-H187, DAY 27",377 ± 98 mg
same,Net Tumor Volume ± S.E.M.,"[2]; MRI-H187, DAY 31",558 ± 152 mg
same,Net Tumor Volume ± S.E.M.,"[2]; MRI-H187, DAY 34",681 ± 187 mg
same,Net Tumor Volume ± S.E.M.,"[2]; MRI-H187, DAY 38",927 ± 274 mg
same,Net Tumor Volume ± S.E.M.,"[2]; MRI-H187, DAY 46",1508 ± 427 mg
same,Net Tumor Volume ± S.E.M.,"[2]; MRI-H187, DAY 49",1804 ± 507 mg
same,Net Tumor Volume ± S.E.M.,"[2]; MRI-H187, DAY 52",2036 ± 525 mg
same,Net Tumor Volume ± S.E.M.,"[2]; MRI-H187, DAY 55",2123 ± 558 mg
same,Net Tumor Volume ± S.E.M.,"[2]; MRI-H187, DAY 59",2166 ± 563 mg
same,Net Tumor Volume ± S.E.M.,"[2]; MRI-H187, DAY 62",2333 ± 433 mg
same,Net Tumor Volume ± S.E.M.,"[2]; MRI-H187, DAY 66",2508 ± 536 mg
CC(=O)O[C@H]1C(=O)[C@@]2(C)[C@H]([C@H](OC(=O)c3ccccc3)[C@]3(O)C[C@H](OC(=O)[C@H](O)[C@@H](NC(=O)c4ccccc4)c4ccccc4)C(C)=C1C3(C)C)[C@]1(OC(C)=O)CO[C@@H]1C[C@@H]2O [paclitaxel],IC50,A549 cells,0.013 µM
same,IC50,HL60 cells,0.016 µM
same,IC50,HT29 cells,0.005 µM
same,IC50,MOLT3 cells,77 µM
same,IC50,MX1 cells,9.4 µM
same,IC50,SKBR3 cells,> 100 µM
"Avastin ®: Bevacizumab (Avastin®), standard of care agent",Net Tumor Volume ± S.E.M.,"[3]; CaKi-1, DAY 13",105 ± 3 mg
same,Net Tumor Volume ± S.E.M.,"[3]; CaKi-1, DAY 15",162 ± 14 mg
same,Net Tumor Volume ± S.E.M.,"[3]; CaKi-1, DAY 19",286 ± 49 mg
same,Net Tumor Volume ± S.E.M.,"[3]; CaKi-1, DAY 22",398 ± 53 mg
same,Net Tumor Volume ± S.E.M.,"[3]; CaKi-1, DAY 26",632 ± 79 mg
same,Net Tumor Volume ± S.E.M.,"[3]; CaKi-1, DAY 29",811 ± 90 mg
same,Net Tumor Volume ± S.E.M.,"[3]; CaKi-1, DAY 33",985 ± 111 mg
same,Net Tumor Volume ± S.E.M.,"[3]; CaKi-1, DAY 36",1251 ± 109 mg
same,Net Tumor Volume ± S.E.M.,"[3]; CaKi-1, DAY 41",1654 ± 189 mg
same,Net Tumor Volume ± S.E.M.,"[3]; CaKi-1, DAY 47",2170 ± 253 mg
same,Net Tumor Volume ± S.E.M.,"[3]; CaKi-1, DAY 50",2842 ± 379 mg
same,Net Tumor Volume ± S.E.M.,"[4]; MRI-H121, DAY 11",106 ± 7 mg
same,Net Tumor Volume ± S.E.M.,"[4]; MRI-H121, DAY 14",171 ± 16 mg
same,Net Tumor Volume ± S.E.M.,"[4]; MRI-H121, DAY 18",306 ± 27 mg
same,Net Tumor Volume ± S.E.M.,"[4]; MRI-H121, DAY 19",299 ± 39 mg
same,Net Tumor Volume ± S.E.M.,"[4]; MRI-H121, DAY 21",365 ± 39 mg
same,Net Tumor Volume ± S.E.M.,"[4]; MRI-H121, DAY 26",503 ± 57 mg
same,Net Tumor Volume ± S.E.M.,"[4]; MRI-H121, DAY 29",678 ± 77 mg
same,Net Tumor Volume ± S.E.M.,"[4]; MRI-H121, DAY 32",899 ± 93 mg
same,Net Tumor Volume ± S.E.M.,"[4]; MRI-H121, DAY 35",898 ± 69 mg
same,Net Tumor Volume ± S.E.M.,"[4]; MRI-H121, DAY 39",1240 ± 124 mg
same,Net Tumor Volume ± S.E.M.,"[4]; MRI-H121, DAY 42",1383 ± 148 mg
